The source of these data is patent publication US10538516B2, “Oxadiazole derivative and pharmaceutical containing same” (National Center for Geriatrics and Gerontology, priority 2015, dated 2020).

Like-named read-outs stand apart in the source and are kept apart here.

For this assay, the target named is T1, GAβ-dependent amyloid fibril formation (Human Aβ1-40 + GM1-containing liposome) (Homo sapiens, UniProt P05067).
T1 construct: Human Aβ1-40 (cat. #4307-v, prepared by Peptide Institute); purchased Peptide Institute 4307-v
T1 sequence (P05067 672-711 limits assumed): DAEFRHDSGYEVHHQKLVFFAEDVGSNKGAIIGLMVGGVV
As to the kind of experiment: Thioflavin T (ThT) assay of GAβ-dependent amyloid fibril formation (Aβ1-40 with GM1-containing liposome). Format: biochemical. An outline of the steps:
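Human Aβ1-40 (75 μM stock) pre-incubated 10 min at room temperature with compound (75 or 15 μM solution), then GM1-containing cholesterol/sphingomyelin liposome added and incubated 37° C, 18 hours. Fibrils quantified by ThT fluorescence (ex 430/em 490 nm, pH 8.5 glycine buffer); inhibition as ratio to compound-free control.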

Setting [1] is: inhibition rate against amyloid fibril formation, final concentration of the compound 25 μM, read-out: Inhibitory activity ABC evaluation.
The mark [2] stands for this setting: @25 μM, read-out: ThT Inhibitory activity (% inhibition).

On to `O=C(N[C@@H](CO)c1nc(-c2ccc(Br)cc2)no1)c1ccc(F)cc1` [Compound 163, N-[(1S)-1-[3-(4-bromophenyl)-1,2,4-oxadiazol-5-yl]-2-hydroxyethyl]-4-fluorobenzamide], for which, under setting [1], the inhibition at 25 µM was in the range of 40 to 80%.
In the case of `O=C(N[C@@H](CO)c1nc(-c2ccc(C(=O)C(F)(F)F)cc2)no1)c1ccc(F)cc1` [Compound 164, 4-fluoro-N-[(1S)-2-hydroxy-1-{3-[4-(2,2,2-trifluoroacetyl)phenyl]-1,2,4-oxadiazol-5-yl}ethyl] benzamide], the inhibition at 25 µM under setting [1] was over 80%.
For `O=C(N[C@@H](CO)c1nc(-c2ccc(C(=O)C(F)(F)F)cc2)no1)c1ccccc1` [Compound 165, N-[(1S)-2-hydroxy-1-{3-[4-(2,2,2-trifluoroacetyl)phenyl]-1,2,4-oxadiazol-5-yl}ethyl] benzamide], under setting [1], the inhibition at 25 µM is over 80%.
Turning to `O=C(N[C@@H](CO)c1nc(-c2ccc(C(F)F)cc2)no1)c1ccc(F)cc1` [Compound 166, N-[(1S)-1-{3-[4-(difluoromethyl)phenyl]-1,2,4-oxadiazol-5-yl}-2-hydroxyethyl]-4-fluorobenzamide], the inhibition at 25 µM under setting [1] lay within 40 to 80%.
Regarding `O=C(N[C@@H](CO)c1nc(-c2ccc(C(F)F)cc2)no1)c1ccc(Cl)cc1` [Compound 167], the inhibition at 25 µM under setting [2] was determined as 98% and the inhibition at 25 µM under setting [1] is over 80%.
Consider `O=C(N[C@@H](CO)c1nc(-c2ccc(C(F)F)cc2)no1)c1ccccc1` [Compound 168, N-[(1S)-1-{3-[4-(difluoromethyl)phenyl]-1,2,4-oxadiazol-5-yl}-2-hydroxyethyl] benzamide], for which the inhibition at 25 µM under setting [1] is over 80%.
The same measure, in the same setting: under `CCOCCOc1ccc(C(=O)N[C@@H](CO)c2nc(-c3ccc(OC(F)(F)F)cc3)no2)cc1` [Compound 169, 4-(2-ethoxyethoxy)-N-[(1S)-2-hydroxy-1-{3-[4-(trifluoromethoxy)phenyl]-1,2,4-oxadiazol-5-yl}ethyl] benzamide] stands 40 to 80%.
Take `CCOCCOc1ccc(C(=O)N[C@@H](CO)c2nc(-c3ccc(C(F)(F)F)cc3)no2)cc1` [Compound 170]: the inhibition at 25 µM under setting [1] lay within 40 to 80%.
`CCN(CC)CCOc1ccc(C(=O)N[C@@H](CO)c2nc(-c3ccc(OC(F)(F)F)cc3)no2)cc1` [Compound 171, 4-[2-(diethylamino)ethoxy]-N-[(1S)-2-hydroxy-1-{3-[4-(trifluoromethoxy)phenyl]-1,2,4-oxadiazol-5-yl}ethyl] benzamide]: under setting [1], the inhibition at 25 µM was under 40%.
As to `O=C(N[C@@H](CO)c1nc(-c2ccc(F)cc2)no1)c1ccc(F)cc1` [Compound 172, 4-fluoro-N-[(1S)-1-[3-(4-fluorophenyl)-1,2,4-oxadiazol-5-yl]-2-hydroxyethyl] benzamide], the inhibition at 25 µM under setting [2] came out at 91% and the inhibition at 25 µM under setting [1] is over 80%.
Regarding `O=C(N[C@@H](CO)c1nc(-c2cnc3ccccc3c2)no1)c1ccc(F)cc1` [Compound 173, 4-fluoro-N-[(1S)-2-hydroxy-1-[3-(quinolin-3-yl)-1,2,4-oxadiazol-5-yl]ethyl] benzamide], the inhibition at 25 µM under setting [1] was under 40%.
`O=C(Nc1nc(-c2ccc(C(F)(F)F)cc2)no1)c1ccccc1` [Compound 174, N-{3-[4-(trifluoromethyl)phenyl]-1,2,4-oxadiazol-5-yl} benzamide]: the inhibition at 25 µM under setting [1] is under 40%.
With `O=C(N[C@@H](CO)c1nc(-c2ccc3[nH]ccc3c2)no1)c1ccc(F)cc1` [Compound 175, 4-fluoro-N-[(1S)-2-hydroxy-1-[3-(1H-indol-5-yl)-1,2,4-oxadiazol-5-yl]ethyl] benzamide], under setting [1], the inhibition at 25 µM is over 80%.
Regarding `O=C(N[C@@H](CO)c1nc(-c2cccc(C(F)(F)F)c2)no1)c1ccc(F)cc1` [Compound 176, 4-fluoro-N-[(1S)-2-hydroxy-1-{3-[3-(trifluoromethyl)phenyl]-1,2,4-oxadiazol-5-yl}ethyl] benzamide], under setting [1], the inhibition at 25 µM was over 80%.
`O=C(N[C@@H](CO)c1nc(-c2cccc(C(F)(F)F)c2)no1)c1ccccc1` [Compound 177, N-[(1S)-2-hydroxy-1-{3-[3-(trifluoromethyl)phenyl]-1,2,4-oxadiazol-5-yl}ethyl] benzamide]: under setting [1], the inhibition at 25 µM was over 80%.
For `O=C(N[C@@H](CO)c1nc(-c2cccs2)no1)c1ccc(F)cc1` [Compound 178, 4-fluoro-N-[(1S)-2-hydroxy-1-[3-(thiophen-2-yl)-1,2,4-oxadiazol-5-yl]ethyl]benzamide], the inhibition at 25 µM is, setting by setting: under setting [2], 61%; under setting [1], 40 to 80%.
Take `O=C(N[C@@H](CO)c1nc(-c2ccc(-n3cccn3)cc2)no1)c1ccc(F)cc1` [Compound 179, 4-fluoro-N-[(1S)-2-hydroxy-1-{3-[4-(1H-pyrazol-1-yl)phenyl]-1,2,4-oxadiazol-5-yl}ethyl]benzamide]: under setting [1], the inhibition at 25 µM fell in the range of 40 to 80%.
For `O=C(N[C@@H](CO)c1nc(-c2ccc(-n3cccn3)cc2)no1)c1ccccc1` [Compound 180], the inhibition at 25 µM under setting [1] was under 40%.
Consider `O=C(N[C@@H](CO)c1nc(-c2ccccc2C(F)(F)F)no1)c1ccc(F)cc1` [Compound 181, 4-fluoro-N-[(1S)-2-hydroxy-1-{3-[2-(trifluoromethyl)phenyl]-1,2,4-oxadiazol-5-yl}ethyl]benzamide], for which the inhibition at 25 µM runs as follows: under setting [2], 73%; under setting [1], 40 to 80%.
`O=C(NC(CO)c1nc(-c2ccc(C(F)(F)F)cc2)no1)c1cc2ccccc2[nH]1` (stereo not shown) [Compound 182, N-(2-hydroxy-1-{3-[4-(trifluoromethyl)phenyl]-1,2,4-oxadiazol-5-yl}ethyl)-1H-indole-2-carboxamide]: the inhibition at 25 µM by setting is: under setting [2], 64%; under setting [1], 40 to 80%.
Consider `O=C(NC(CO)c1nc(-c2ccc(C(F)(F)F)cc2)no1)c1ccc2[nH]ccc2c1` (stereo not shown) [Compound 183, N-(2-hydroxy-1-{3-[4-(trifluoromethyl)phenyl]-1,2,4-oxadiazol-5-yl}ethyl)-1H-indole-5-carboxamide], for which the inhibition at 25 µM under setting [1] was over 80%.
In the case of `O=C(NC(CO)c1nc(-c2ccc(C(F)(F)F)cc2)no1)c1cccc2cc[nH]c12` (stereo not shown) [Compound 184, N-(2-hydroxy-1-{3-[4-(trifluoromethyl)phenyl]-1,2,4-oxadiazol-5-yl}ethyl)-1H-indole-7-carboxamide], the inhibition at 25 µM under setting [1] was in the range of 40 to 80%.
For `O=C(Cc1c[nH]c2ccccc12)NC(CO)c1nc(-c2ccc(C(F)(F)F)cc2)no1` (stereo not shown) [Compound 185, N-(2-hydroxy-1-{3-[4-(trifluoromethyl)phenyl]-1,2,4-oxadiazol-5-yl}ethyl)-2-(1H-indol-3-yl)acetamide], under setting [1], the inhibition at 25 µM was 40 to 80%.
For `O=C(NC(CO)c1nc(-c2ccc(C(F)(F)F)cc2)no1)c1n[nH]c2ccccc12` (stereo not shown) [Compound 186, N-(2-hydroxy-1-{3-[4-(trifluoromethyl)phenyl]-1,2,4-oxadiazol-5-yl}ethyl)-1H-indazole-3-carboxamide], under setting [1], the inhibition at 25 µM was in the range of 40 to 80%.
With `O=C(Cc1ccc(F)cc1)NC(CO)c1nc(-c2ccc(C(F)(F)F)cc2)no1` (stereo not shown) [Compound 187, 2-(4-fluorophenyl)-N-(2-hydroxy-1-{3-[4-(trifluoromethyl)phenyl]-1,2,4-oxadiazol-5-yl}ethyl)acetamide], the inhibition at 25 µM under setting [1] was 40 to 80%.
Take `O=C(NC(CO)c1nc(-c2ccc(C(F)(F)F)cc2)no1)c1ccc(C(F)(F)F)cc1` (stereo not shown) [Compound 188, N-(2-hydroxy-1-{3-[4-(trifluoromethyl)phenyl]-1,2,4-oxadiazol-5-yl}ethyl)-4-(trifluoromethyl) benzamide]: the inhibition at 25 µM under setting [1] was over 80%.
`O=C(N[C@@H](CO)c1nc(-c2ccccc2C(F)(F)F)no1)c1ccccc1` [Compound 189, N-[(1S)-2-hydroxy-1-{3-[2-(trifluoromethyl)phenyl]-1,2,4-oxadiazol-5-yl}ethyl]benzamide]: the inhibition at 25 µM under setting [1] is 40 to 80%.
For `O=C(N[C@@H](CO)c1nc(-c2ccc(C3(F)COC3)cc2)no1)c1ccc(F)cc1` [Compound 190, 4-fluoro-N-[(1S)-1-{3-[4-(3-fluorooxetan-3-yl)phenyl]-1,2,4-oxadiazol-5-yl}-2-hydroxyethyl] benzamide], the inhibition at 25 µM is 67% under setting [2] and 40 to 80% under setting [1].
On to `O=C(/C=C/c1cc(Cl)cc(Cl)c1)NC(CO)c1nc(-c2ccc(C(F)(F)F)cc2)no1` (stereo not shown) [Compound 191, (2E)-3-(3,5-dichlorophenyl)-N-(2-hydroxy-1-{3-[4-(trifluoromethyl)phenyl]-1,2,4-oxadiazol-5-yl}ethyl)prop-2-enamide], for which the inhibition at 25 µM is 73% under setting [2] and 40 to 80% under setting [1].
Turning to `O=C(N[C@@H](CO)c1nc(-c2ccc(C(F)(F)F)cc2)no1)C1CNc2ccccc2O1` (stereo partly drawn) [Compound 192, N-[(1S)-2-hydroxy-1-{3-[4-(trifluoromethyl)phenyl]-1,2,4-oxadiazol-5-yl}ethyl]-3,4-dihydro-2H-1,4-benzoxazine-2-carboxamide], the inhibition at 25 µM under setting [1] is over 80%.
Consider `O=C(N[C@@H](CO)c1nc(-c2ccc(C(F)(F)F)cc2)no1)C1CC(=O)N(c2ccc(Cl)cc2)C1` (stereo partly drawn) [Compound 193, 1-(4-chlorophenyl)-N-[(1S)-2-hydroxy-1-{3-[4-(trifluoromethyl)phenyl]-1,2,4-oxadiazol-5-yl}ethyl]-5-oxopyrrolidine-3-carboxamide], for which the inhibition at 25 µM under setting [1] was 40 to 80%.
Same read-out and setting: under `O=C(N[C@@H](CO)c1nc(-c2ccc3[nH]cc(F)c3c2)no1)c1ccc(F)cc1` [Compound 194, 4-fluoro-N-[(1S)-1-[3-(3-fluoro-1H-indol-5-yl)-1,2,4-oxadiazol-5-yl]-2-hydroxyethyl] benzamide] stands 40 to 80%.
In the case of `O=C(N[C@@H](CO)c1nc(-c2ccc(C(F)(F)F)cc2)no1)c1ccc(F)c(Cl)c1` [Compound 195, 3-chloro-4-fluoro-N-[(1S)-2-hydroxy-1-{3-[4-(trifluoromethyl)phenyl]-1,2,4-oxadiazol-5-yl}ethyl]benzamide], the inhibition at 25 µM under setting [1] was over 80%.
